Experimental data published in patent US5840917A, “Phosphorylamides, their preparation and use” (Takeda Chemical Industries, Ltd., priority 1995, dated 1998).
pIC50: −log10 of the molar value.

molecular target: T1, Helicobacter pylori-derived urease (Helicobacter pylori, UniProt P69996); experiment: Screening of urease inhibitors (ammonia yield from urea); type: biochemical; details: not given
T1 construct: an urease solution prepared from Helicobacter pylori; endogenous in cells
Method: Screening of Urease Inhibitors
One hundred (100) μl of 100 mM Bis-Tris buffer (pH 6.5) and 60 μl of an urease solution prepared from Helicobacter pylori were added to 20 μl of a test drug dissolved in 0.1% dimethylformamide solution. The mixture was incubated at room temperature for 30 minutes, and then 20 μl of 100 mM urea was added. The mixture was kept at room temperature for 10 minutes, and then the yielded ammonia in the incubation mixture was measured using a commercial test kit (Ammonia Test Wako®; Wako Pure Chemical). The percent inhibition against the yield of ammonia in the solvent addition group was calculated to obtain the IC50 value.

T1 sequence (P69996 whole entry, looked up): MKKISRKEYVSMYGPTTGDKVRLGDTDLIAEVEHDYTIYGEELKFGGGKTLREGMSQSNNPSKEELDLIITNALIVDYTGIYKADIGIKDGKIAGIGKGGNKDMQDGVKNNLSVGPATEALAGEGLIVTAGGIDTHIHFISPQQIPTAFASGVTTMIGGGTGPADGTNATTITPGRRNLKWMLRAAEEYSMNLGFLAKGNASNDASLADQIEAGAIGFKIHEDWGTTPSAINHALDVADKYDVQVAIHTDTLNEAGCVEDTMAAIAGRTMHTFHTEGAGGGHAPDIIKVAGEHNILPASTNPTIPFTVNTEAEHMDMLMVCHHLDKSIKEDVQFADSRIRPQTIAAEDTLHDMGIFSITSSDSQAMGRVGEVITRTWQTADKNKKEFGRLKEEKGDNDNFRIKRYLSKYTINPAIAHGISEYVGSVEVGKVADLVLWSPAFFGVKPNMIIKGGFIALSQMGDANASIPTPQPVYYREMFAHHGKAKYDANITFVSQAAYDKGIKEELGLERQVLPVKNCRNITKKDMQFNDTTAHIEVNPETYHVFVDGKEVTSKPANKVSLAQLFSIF

**Q.** How did the pIC50 turn out when NP(N)(=O)NC(=O)c1cccs1 [Example 1, N-(Diaminophosphinyl)-2-thiophenecarboxamide] was run?
**A.** 8.92

**Q.** With Cc1ccsc1C(=O)NP(N)(N)=O [Example 4, N-(Diaminophosphinyl)-3-methyl-2-thiophenecarboxamide] as the compound, how does the pIC50 read?
**A.** 8.17

**Q.** How did the pIC50 turn out when NP(N)(=O)NC(=O)c1ccc(Br)s1 [Example 6, N-(Diaminophosphinyl)-5-bromo-2-thiophenecarboxamide] was run?
**A.** 8.46

**Q.** With NP(N)(=O)NC(=O)c1cc(Br)c(Br)s1 [Example 7, N-(Diaminophosphinyl)-4,5-dibromo-2-thiophenecarboxamide] as the compound, how does the pIC50 read?
**A.** 8.37

**Q.** How did the pIC50 turn out when NP(N)(=O)NC(=O)c1cc(Br)cs1 [Example 8, N-(Diaminophosphinyl)-4-bromo-thiophenecarboxamide] was run?
**A.** 8.37

**Q.** With NP(N)(=O)NC(=O)c1ccc([N+](=O)[O-])s1 [Example 10, N-(Diaminophosphinyl)-5-nitro-thiophenecarboxamide] as the compound, how does the pIC50 read?
**A.** 8.44

**Q.** With NP(N)(=O)NC(=O)c1ccc(C(F)F)s1 [Example 13, N-(Diaminophosphinyl)-5-difluoromethyl-2-thiophenecarboxamide] as the compound, how does the pIC50 read?
**A.** 8.28

**Q.** With NP(N)(=O)NC(=O)c1sccc1Cl [Example 14, N-(Diaminophosphinyl)-3-chloro-2-thiophenecarboxamide] as the compound, how does the pIC50 read?
**A.** 8.96

**Q.** How did the pIC50 turn out when NP(N)(=O)NC(=O)c1sccc1Br [Example 16, N-(Diaminophosphinyl)-3-bromo-2-thiophenecarboxamide] was run?
**A.** 9.10

**Q.** With CS(=O)(=O)c1ccc(C(=O)NP(N)(N)=O)s1 [Example 18, N-(Diaminophosphinyl)-5-methanesulfonyl-2-thiophenecarboxamide] as the compound, how does the pIC50 read?
**A.** 7.96

**Q.** How did the pIC50 turn out when NP(N)(=O)NC(=O)c1ccsc1C(F)F [Example 20, N-(Diaminophosphinyl)-2-difluoromethyl-3-thiophenecarboxamide] was run?
**A.** 8.60

**Q.** How did the pIC50 turn out when NP(N)(=O)NC(=O)c1csc([N+](=O)[O-])c1 [Example 21, N-(Diaminophosphinyl)-5-nitro-3-thiophenecarboxamide] was run?
**A.** 8.37

**Q.** With COc1ccc(C(=O)NP(N)(N)=O)s1 [Example 22, N-(Diaminophosphinyl)-5-methoxy-2-thiophenecarboxamide] as the compound, how does the pIC50 read?
**A.** 7.92

**Q.** With COc1csc(C(=O)NP(N)(N)=O)c1 [Example 24, N-(Diaminophosphinyl)-4-methoxy-2-thiophenecarboxamide] as the compound, how does the pIC50 read?
**A.** 8.04

**Q.** With CCc1ccsc1C(=O)NP(N)(N)=O [Example 27, N-(Diaminophosphinyl)-3-ethyl-2-thiophenecarboxamide] as the compound, how does the pIC50 read?
**A.** 8.39

**Q.** With Cc1cc(C(=O)NP(N)(N)=O)sc1Br [Example 29, N-(Diaminophosphinyl)-5-bromo-4-methyl-2-thiophenecarboxamide] as the compound, how does the pIC50 read?
**A.** 8.09

**Q.** How did the pIC50 turn out when NP(N)(=O)NC(=O)c1csc(C(F)F)c1 [Example 31, N-(Diaminophosphinyl)-5-difluoromethyl-3-thiophenecarboxamide] was run?
**A.** 8.15

**Q.** With Cc1sc(Cl)cc1C(=O)NP(N)(N)=O [Example 33, N-(Diaminophosphinyl)-5-chloro-2-methyl-3-thiophenecarboxamide] as the compound, how does the pIC50 read?
**A.** 8.72

**Q.** Cc1sc(C(=O)NP(N)(N)=O)cc1Cl [Example 34, N-(Diaminophosphinyl)-4-chloro-5-methyl-2-thiophenecarboxamide] was tested. Which pIC50 did it give?
**A.** 7.92

**Q.** How did the pIC50 turn out when Cc1cc(C(=O)NP(N)(N)=O)sc1Cl [Example 35, N-(Diaminophosphinyl)-5-chloro-4-methyl-2-thiophenecarboxamide] was run?
**A.** 7.96

**Q.** With NP(N)(=O)NC(=O)c1cc(Cl)c(Cl)s1 [Example 36, N-(Diaminophosphinyl)-4,5-dichloro-2-thiophenecarboxamide] as the compound, how does the pIC50 read?
**A.** 8.13

**Q.** How did the pIC50 turn out when NP(N)(=O)NC(=O)c1cscc1Br [Example 37, N-(Diaminophosphinyl)-4-bromo-3-thiophenecarboxamide] was run?
**A.** 8.74

**Q.** With NP(N)(=O)NC(=O)c1ccsc1Cl [Example 38, N-(Diaminophosphinyl)-2-chloro-3-thiophenecarboxamide] as the compound, how does the pIC50 read?
**A.** 8.77

**Q.** NP(N)(=O)NC(=O)c1ccc(Br)o1 [Example 39, N-(Diaminophosphinyl)-5-bromo-2-furancarboxamide] was tested. Which pIC50 did it give?
**A.** 8.66

**Q.** How did the pIC50 turn out when NP(N)(=O)NC(=O)c1ccc(Cl)o1 [Example 42, N-(Diaminophosphinyl)-5-chloro-2-furancarboxamide] was run?
**A.** 8.64

**Q.** Cc1ccc(C(=O)NP(N)(N)=O)o1 [Example 43, N-(Diaminophosphinyl)-5-methyl-2-furancarboxamide] was tested. Which pIC50 did it give?
**A.** 8.21

**Q.** NP(N)(=O)NC(=O)c1ccc(C(F)F)o1 [Example 47, N-(Diaminophosphinyl)-5-difluoromethyl-2-furancarboxamide] was tested. Which pIC50 did it give?
**A.** 8.72

**Q.** How did the pIC50 turn out when Cc1cc(C(=O)NP(N)(N)=O)c(C(F)(F)F)o1 [Example 48, N-(Diaminophosphinyl)-2-trifluoromethyl-5-methyl-3-furancarboxamide] was run?
**A.** 8.08

**Q.** Cc1cc(C(=O)NP(N)(N)=O)c(C)o1 [Example 49] was tested. Which pIC50 did it give?
**A.** 7.57

**Q.** Cc1oc(Cl)cc1C(=O)NP(N)(N)=O [Example 50, N-(Diaminophosphinyl)-5-chloro-2-methyl-3-furancarboxamide] was tested. Which pIC50 did it give?
**A.** 8.12

**Q.** CCc1occc1C(=O)NP(N)(N)=O [Example 51, N-(Diaminophosphinyl)-2-ethyl-3-furancarboxamide] was tested. Which pIC50 did it give?
**A.** 7.66

**Q.** With NP(N)(=O)NC(=O)COc1ccc([N+](=O)[O-])cc1 [Example 52, N-(Diaminophosphinyl)-4-nitrophenoxyacetamide] as the compound, how does the pIC50 read?
**A.** 7.92

**Q.** COc1ccc(OCC(=O)NP(N)(N)=O)cc1 [Example 53, N-(Diaminophosphinyl)-4-methoxyphenoxyacetamide] was tested. Which pIC50 did it give?
**A.** 8.10

**Q.** With NP(N)(=O)NC(=O)COc1ccc(Cl)cc1 [Example 55, N-(Diaminophosphinyl)-4-chlorophenoxyacetamide] as the compound, how does the pIC50 read?
**A.** 8.52

**Q.** Cc1cc(C)c(C)c(OCC(=O)NP(N)(N)=O)c1 [Example 56, N-(Diaminophosphinyl)-2,3,5-trimethylphenoxyacetamide] was tested. Which pIC50 did it give?
**A.** 7.39

**Q.** How did the pIC50 turn out when N#Cc1ccc(OCC(=O)NP(N)(N)=O)cc1 [Example 57, N-(Diaminophosphinyl)-4-cyanophenoxyacetamide] was run?
**A.** 8.12

**Q.** How did the pIC50 turn out when NP(N)(=O)NC(=O)COc1cccc(Cl)c1 [Example 58, N-(Diaminophosphinyl)-3-chlorophenoxyacetamide] was run?
**A.** 8.52

**Q.** With NP(N)(=O)NC(=O)COc1ccccc1Cl [Example 59, N-(Diaminophosphinyl)-2-chlorophenoxyacetamide] as the compound, how does the pIC50 read?
**A.** 8.27

**Q.** With NP(N)(=O)NC(=O)COc1cccc(F)c1 [Example 60, N-(Diaminophosphinyl)-3-fluorophenoxyacetamide] as the compound, how does the pIC50 read?
**A.** 8.44

**Q.** NP(N)(=O)NC(=O)CSc1ccccc1 [Example 61, N-(Diaminophosphinyl)-phenylthioacetamide] was tested. Which pIC50 did it give?
**A.** 8.55

**Q.** How did the pIC50 turn out when NP(N)(=O)NC(=O)CSc1ccc(F)cc1 [Example 62, N-(Diaminophosphinyl)-4-fluorophenylthioacetamide] was run?
**A.** 8.55

**Q.** With NP(N)(=O)NC(=O)CSc1nc2ccccc2o1 [Example 63, N-(Diaminophosphinyl)-2-benzoxazolylthioacetamide] as the compound, how does the pIC50 read?
**A.** 8.25

**Q.** NP(N)(=O)NC(=O)CSc1nc2ccccc2s1 [Example 64, N-(Diaminophosphinyl)-2-benzothiazolylthioacetamide] was tested. Which pIC50 did it give?
**A.** 8.54

**Q.** How did the pIC50 turn out when NP(N)(=O)NC(=O)CSc1nc2cc(Cl)ccc2s1 [Example 65, N-(Diaminophosphinyl)-5-chloro-2-benzothiazolylthioacetamide] was run?
**A.** 8.64

**Q.** How did the pIC50 turn out when NP(N)(=O)NC(=O)c1cc2ccccc2o1 [Example 67, N-(Diaminophosphinyl)-2-benzofurancarboxamide] was run?
**A.** 8.21

**Q.** With Cc1nc2cc(C(=O)NP(N)(N)=O)ccc2o1 [Example 68, N-(Diaminophosphinyl)-2-methyl-5-benzoxazolecarboxamide] as the compound, how does the pIC50 read?
**A.** 7.74

**Q.** NP(N)(=O)NC(=O)C=Cc1nc2ccccc2o1 [Example 69, N-(Diaminophosphinyl)-3-(2-benzoxazolyl)propenamide] was tested. Which pIC50 did it give?
**A.** 8.01

**Q.** NP(N)(=O)NC(=O)c1nc2ccccc2s1 [Example 70, N-(Diaminophosphinyl)-2-benzothiazolecarboxamide] was tested. Which pIC50 did it give?
**A.** 7.89

**Q.** With Cc1ccc2c(Cl)c(C(=O)NP(N)(N)=O)sc2c1 [Example 71, N-(Diaminophosphinyl)-3-chloro-6-methylbenzothiophenecarboxamide] as the compound, how does the pIC50 read?
**A.** 8.72

**Q.** With NP(N)(=O)NC(=O)C=Cc1nc2cc(Cl)ccc2o1 [Example 72, N-(Diaminophosphinyl)-3-(5-chloro-2-benzoxazolyl)propenamide] as the compound, how does the pIC50 read?
**A.** 8.44

**Q.** How did the pIC50 turn out when Cc1onc(-c2ccccc2)c1C(=O)NP(N)(N)=O [Example 73, N-(Diaminophosphinyl)-5-methyl-3-phenyl-4-isoxazolecarboxamide] was run?
**A.** 7.26

**Q.** With NP(N)(=O)NC(=O)c1sc2ccccc2c1Cl [Example 74, N-(Diaminophosphinyl)-3-chloro-2-benzothiophenecarboxamide] as the compound, how does the pIC50 read?
**A.** 8.29

**Q.** How did the pIC50 turn out when NP(N)(=O)NC(=O)Cc1noc2ccccc12 [Example 75, N-(Diaminophosphinyl)-3-benzisoxazolylacetamide] was run?
**A.** 7.66

**Q.** With NP(N)(=O)NC(=O)C=Cc1cc(Br)cs1 [Example 77, N-(Diaminophosphinyl)-3-(4-bromo-2-thienyl)propenamide] as the compound, how does the pIC50 read?
**A.** 8.09

**Q.** How did the pIC50 turn out when NP(N)(=O)NC(=O)C=Cc1cccs1 [Example 78, N-(Diaminophosphinyl)-3-(2-thienyl)propenamide] was run?
**A.** 8.33

**Q.** How did the pIC50 turn out when N#CC(=Cc1cccs1)C(=O)NP(N)(N)=O [Example 79, N-(Diaminophosphinyl)-2-cyano-3-(2-thienyl)propenamide] was run?
**A.** 8.22

same assay, conditions: Bis-Tris pH 6.5, room temperature, 30 min preincubation, 10 min with urea; read-out: IC50, inhibitory effect against Helicobacter pylori-derived urease

**Q.** With CCOc1ccc2sc(SCC(=O)NP(N)(N)=O)nc2c1 [Example 66, N-(Diaminophosphinyl)-5-ethoxy-2-benzothiazolylthioacetamide] as the compound, how does the pIC50 read?
**A.** 8.00
